Measurements from ChEMBL document CHEMBL1201862, “PubChem BioAssay data set” (2004).
Calls of active or inactive are those of the source.

Columns and labels:
Orexin receptor type 2 [1] = target: T1, Orexin receptor type 2 (Homo sapiens, UniProt O43614); assay: Counterscreen assay for antagonists of the orexin 1 receptor (OX1R; HCRTR1): Homogeneous Time Resolved Fluorescence (HTRF)-based cell-based dose response assay for antagonists of the orexin 2 receptor (OX2R; HCRTR2), run by assay provider.; assay type: functional
T1 sequence (O43614 whole entry): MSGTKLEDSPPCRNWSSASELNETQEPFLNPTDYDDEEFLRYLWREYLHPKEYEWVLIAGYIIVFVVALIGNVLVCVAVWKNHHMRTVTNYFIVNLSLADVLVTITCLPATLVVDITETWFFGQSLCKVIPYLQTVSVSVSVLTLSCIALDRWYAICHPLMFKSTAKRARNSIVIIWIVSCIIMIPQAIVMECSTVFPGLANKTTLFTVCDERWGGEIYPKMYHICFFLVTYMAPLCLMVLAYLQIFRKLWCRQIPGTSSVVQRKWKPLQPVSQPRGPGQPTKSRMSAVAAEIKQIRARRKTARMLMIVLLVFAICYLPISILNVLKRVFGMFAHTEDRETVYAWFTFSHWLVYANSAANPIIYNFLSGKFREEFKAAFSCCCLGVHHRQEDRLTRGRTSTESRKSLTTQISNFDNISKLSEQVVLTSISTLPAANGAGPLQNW

CHO-K1 = assay: (§1) Counterscreen for antagonists of the orexin 1 receptor (OX1R; HCRTR1): Homogeneous time resolved fluorescence (HTRF)-based cell-based dose response assay to identify antagonists of the parental CHO-K1 cell line. [Related pubchem assays (depositor defined):AID434989, AID435008, AID463079, AID485270, AID492963, AID492964, AID492965, AID493232, AID504699, AID504701]; assay type: functional; details: Cricetulus griseus
[2] = as §1, with “Fluorescence-based” for “Homogeneous time resolved fluorescence (HTRF)-based”, “cell-based high throughput” for “cell-based”, “CHO” for “CHO-K1”; assay type: functional
[3] = target: T2, Orexin/Hypocretin receptor type 1 (Homo sapiens, UniProt O43613); assay: Homogeneous Time Resolved Fluorescence (HTRF)-based cell-based high throughput dose response assay for antagonists of the orexin 1 receptor (OX1R; HCRTR1). [Related pubchem assays (depositor defined):AID434989, AID435008, AID463079, AID485270, AID492963, AID492964, AID492965, AID493232, AID504717, AID504718]; assay type: functional
T2 sequence (O43613 whole entry): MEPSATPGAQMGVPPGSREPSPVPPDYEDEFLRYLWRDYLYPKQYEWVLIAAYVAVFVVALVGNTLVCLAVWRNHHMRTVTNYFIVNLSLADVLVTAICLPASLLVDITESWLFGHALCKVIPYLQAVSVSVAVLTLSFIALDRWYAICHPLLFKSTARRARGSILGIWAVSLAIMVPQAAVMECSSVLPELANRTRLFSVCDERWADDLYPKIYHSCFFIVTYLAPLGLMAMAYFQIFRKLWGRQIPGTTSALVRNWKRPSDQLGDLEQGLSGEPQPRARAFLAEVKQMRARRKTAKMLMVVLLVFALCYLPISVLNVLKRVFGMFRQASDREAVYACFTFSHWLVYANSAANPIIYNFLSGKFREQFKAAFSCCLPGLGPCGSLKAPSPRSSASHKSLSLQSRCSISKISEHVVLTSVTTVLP

[4] = target: T2, Orexin/Hypocretin receptor type 1; assay: Fluorescence-based cell-based high throughput dose response assay for antagonists of the orexin 1 receptor (OX1R; HCRTR1). [Related pubchem assays (depositor defined):AID434989, AID435008, AID463079, AID485270, AID492963, AID492964, AID492965, AID493232, AID504717, AID504718]; assay type: functional
Orexin receptor type 2 [5] = target: T1, Orexin receptor type 2; assay: Counterscreen assay for antagonists of the orexin 1 receptor (OX1R; HCRTR1): Fluorescence-based cell-based dose response assay for antagonists of the orexin 2 receptor (OX2R; HCRTR2), run by assay provider.; assay type: functional
[6] = target: T3, DNA repair protein RAD52 homolog (Homo sapiens, UniProt P43351); assay type: functional, biochemical
T3 sequence (P43351 whole entry): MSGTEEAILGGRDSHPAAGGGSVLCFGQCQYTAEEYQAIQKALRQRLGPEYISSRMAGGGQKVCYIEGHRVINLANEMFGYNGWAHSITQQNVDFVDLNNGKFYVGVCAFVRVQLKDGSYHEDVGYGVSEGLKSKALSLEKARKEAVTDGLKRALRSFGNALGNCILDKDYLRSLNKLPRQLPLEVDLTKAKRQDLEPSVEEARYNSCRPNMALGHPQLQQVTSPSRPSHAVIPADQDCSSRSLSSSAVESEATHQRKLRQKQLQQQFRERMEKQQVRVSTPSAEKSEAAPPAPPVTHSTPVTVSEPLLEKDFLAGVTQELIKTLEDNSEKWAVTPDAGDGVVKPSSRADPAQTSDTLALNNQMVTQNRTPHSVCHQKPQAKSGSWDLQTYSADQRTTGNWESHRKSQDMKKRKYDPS

[7] = target: T4, Apoptotic protease-activating factor 1 (Homo sapiens, UniProt O14727); assay type: functional
T4 sequence (O14727 whole entry): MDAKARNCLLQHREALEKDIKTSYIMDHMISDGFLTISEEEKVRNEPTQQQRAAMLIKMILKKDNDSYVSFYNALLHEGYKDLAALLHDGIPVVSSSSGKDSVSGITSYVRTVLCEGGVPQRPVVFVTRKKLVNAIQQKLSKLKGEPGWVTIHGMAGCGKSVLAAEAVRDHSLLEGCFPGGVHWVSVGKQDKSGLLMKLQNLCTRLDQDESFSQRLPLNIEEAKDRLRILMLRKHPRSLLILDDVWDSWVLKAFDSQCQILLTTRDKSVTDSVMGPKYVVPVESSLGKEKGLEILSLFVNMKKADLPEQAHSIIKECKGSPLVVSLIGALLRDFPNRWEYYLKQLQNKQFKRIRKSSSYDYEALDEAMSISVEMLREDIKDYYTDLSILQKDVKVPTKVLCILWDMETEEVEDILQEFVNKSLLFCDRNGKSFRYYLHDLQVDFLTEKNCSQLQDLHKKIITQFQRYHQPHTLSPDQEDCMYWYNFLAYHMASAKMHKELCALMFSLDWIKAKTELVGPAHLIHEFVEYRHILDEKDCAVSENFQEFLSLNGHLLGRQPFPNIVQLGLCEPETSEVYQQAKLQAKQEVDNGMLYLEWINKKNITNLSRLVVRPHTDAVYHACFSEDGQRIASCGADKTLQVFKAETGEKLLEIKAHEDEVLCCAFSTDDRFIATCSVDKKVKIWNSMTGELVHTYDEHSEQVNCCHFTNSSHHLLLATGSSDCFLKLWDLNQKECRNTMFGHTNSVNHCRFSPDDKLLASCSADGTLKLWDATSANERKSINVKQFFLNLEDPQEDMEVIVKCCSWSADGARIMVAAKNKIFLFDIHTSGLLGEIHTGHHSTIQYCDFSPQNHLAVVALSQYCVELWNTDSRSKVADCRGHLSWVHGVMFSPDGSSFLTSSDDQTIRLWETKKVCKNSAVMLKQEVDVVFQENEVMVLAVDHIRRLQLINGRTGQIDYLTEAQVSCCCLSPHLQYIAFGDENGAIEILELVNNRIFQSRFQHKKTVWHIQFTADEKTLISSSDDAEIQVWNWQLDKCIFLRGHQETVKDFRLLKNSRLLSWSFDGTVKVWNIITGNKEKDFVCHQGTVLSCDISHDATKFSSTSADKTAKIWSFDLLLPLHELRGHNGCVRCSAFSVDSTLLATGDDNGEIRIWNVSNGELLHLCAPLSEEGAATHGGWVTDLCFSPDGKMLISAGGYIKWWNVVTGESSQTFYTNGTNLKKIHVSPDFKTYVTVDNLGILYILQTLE

[8] = target: T5, Ubiquitin-conjugating enzyme E2 N (Homo sapiens, UniProt P61088); assay type: functional
T5 sequence (P61088 whole entry): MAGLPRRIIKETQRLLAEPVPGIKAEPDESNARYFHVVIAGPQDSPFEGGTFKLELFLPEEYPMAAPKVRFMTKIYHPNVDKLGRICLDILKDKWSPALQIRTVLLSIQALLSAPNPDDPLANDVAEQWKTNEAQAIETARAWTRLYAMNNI

[9] = target: Heat shock protein HSP 90-alpha (Homo sapiens, UniProt P07900); assay type: functional, organism-based
[10] = target: 72 kDa type IV collagenase (Homo sapiens, UniProt P08253); assay: Dose Response validation of uHTS RPN11 inhibitor hits using a MMP-2 Fluorescence assay.; assay type: functional
[11] = inhibitors of firefly luciferase expression or activity, dose response, H4 neuroglioma cells, luminescence (AID 1990); assay type: functional, cell-based
[12] = target: 26S proteasome non-ATPase regulatory subunit 14 (Homo sapiens, UniProt O00487); assay: inhibition of proteasome subunit RPN11 – biochemical, fluorescence polarization, uHTS hits, confirmation (AID 602368); assay type: functional
Prothrombin = Prothrombin (Bos taurus, UniProt P00735); assay: thrombin inhibition, dose response, biochemical, fluorescence polarization, uHTS hits (AID 602369); assay type: functional
[13] = target: T5, Ubiquitin-conjugating enzyme E2 N; assay type: functional; remark: listed apart in the source
Bcl-2-related protein A1 = target: T6, Bcl-2-related protein A1 (Mus musculus, UniProt Q07440); assay type: functional;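 also: confirmatory dose–response counterscreen on Bfl-1, used to check hits from a UBC13 polyubiquitin inhibitor campaign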
T6 sequence (Q07440 whole entry): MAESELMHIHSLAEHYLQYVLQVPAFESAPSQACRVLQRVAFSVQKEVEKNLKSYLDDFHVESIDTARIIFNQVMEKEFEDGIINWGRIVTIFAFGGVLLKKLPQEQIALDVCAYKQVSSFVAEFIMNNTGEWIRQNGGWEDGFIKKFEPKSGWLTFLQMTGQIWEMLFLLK

[14] = inhibitors of SNCA 5'UTR-driven reporter translation, confirmation, H4 neuroglioma cells, luminescence (AID 1988); assay type: functional, cell-based
[15] = target: T7, Neuropeptides B/W receptor type 1 (Homo sapiens, UniProt P48145); assay: GPR7 antagonist potency, late-stage follow-up, cell-based, fluorescence, dose response, set 5 (AID 588566); assay type: functional
T7 sequence (P48145 whole entry): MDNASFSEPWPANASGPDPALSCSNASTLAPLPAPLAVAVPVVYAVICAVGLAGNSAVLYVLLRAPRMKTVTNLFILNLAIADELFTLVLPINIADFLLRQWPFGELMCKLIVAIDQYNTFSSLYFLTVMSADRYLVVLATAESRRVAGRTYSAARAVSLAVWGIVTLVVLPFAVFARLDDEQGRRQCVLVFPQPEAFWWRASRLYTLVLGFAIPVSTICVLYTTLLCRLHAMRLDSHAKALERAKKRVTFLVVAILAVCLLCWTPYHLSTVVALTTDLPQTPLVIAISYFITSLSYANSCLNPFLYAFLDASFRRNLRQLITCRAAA

[16] = target: Melanin-concentrating hormone receptor 1 (Homo sapiens, UniProt Q99705); assay: Late-stage fluorescence-based counterscreen for antagonists of the G-protein coupled receptor 7 (GPR7): cell-based dose response assay to identify antagonists of the melanin-concentrating hormone receptor 1 (MCHR1) Set 5.; assay type: functional
Melanin-concentrating hormone receptor 1, sequence (Q99705 whole entry): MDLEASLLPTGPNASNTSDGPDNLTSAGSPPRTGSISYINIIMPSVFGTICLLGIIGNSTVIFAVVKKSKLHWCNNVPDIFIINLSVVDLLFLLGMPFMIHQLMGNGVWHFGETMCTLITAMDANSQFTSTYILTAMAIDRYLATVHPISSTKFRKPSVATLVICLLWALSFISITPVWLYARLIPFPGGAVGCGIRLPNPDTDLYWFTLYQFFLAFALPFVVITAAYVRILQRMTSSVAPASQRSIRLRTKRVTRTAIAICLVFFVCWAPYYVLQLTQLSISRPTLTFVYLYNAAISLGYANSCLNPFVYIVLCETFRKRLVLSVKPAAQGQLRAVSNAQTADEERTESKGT

26S proteasome non-ATPase regulatory subunit 14, sequence (O00487 whole entry): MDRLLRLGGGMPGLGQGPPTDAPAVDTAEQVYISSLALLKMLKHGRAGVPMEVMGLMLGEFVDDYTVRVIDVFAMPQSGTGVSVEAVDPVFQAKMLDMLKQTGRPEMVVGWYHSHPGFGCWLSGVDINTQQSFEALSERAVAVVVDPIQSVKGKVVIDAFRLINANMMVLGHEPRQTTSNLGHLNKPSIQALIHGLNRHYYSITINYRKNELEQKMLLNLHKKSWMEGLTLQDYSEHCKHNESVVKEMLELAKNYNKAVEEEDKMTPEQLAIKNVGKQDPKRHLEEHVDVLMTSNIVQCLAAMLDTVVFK
72 kDa type IV collagenase, sequence (P08253 whole entry): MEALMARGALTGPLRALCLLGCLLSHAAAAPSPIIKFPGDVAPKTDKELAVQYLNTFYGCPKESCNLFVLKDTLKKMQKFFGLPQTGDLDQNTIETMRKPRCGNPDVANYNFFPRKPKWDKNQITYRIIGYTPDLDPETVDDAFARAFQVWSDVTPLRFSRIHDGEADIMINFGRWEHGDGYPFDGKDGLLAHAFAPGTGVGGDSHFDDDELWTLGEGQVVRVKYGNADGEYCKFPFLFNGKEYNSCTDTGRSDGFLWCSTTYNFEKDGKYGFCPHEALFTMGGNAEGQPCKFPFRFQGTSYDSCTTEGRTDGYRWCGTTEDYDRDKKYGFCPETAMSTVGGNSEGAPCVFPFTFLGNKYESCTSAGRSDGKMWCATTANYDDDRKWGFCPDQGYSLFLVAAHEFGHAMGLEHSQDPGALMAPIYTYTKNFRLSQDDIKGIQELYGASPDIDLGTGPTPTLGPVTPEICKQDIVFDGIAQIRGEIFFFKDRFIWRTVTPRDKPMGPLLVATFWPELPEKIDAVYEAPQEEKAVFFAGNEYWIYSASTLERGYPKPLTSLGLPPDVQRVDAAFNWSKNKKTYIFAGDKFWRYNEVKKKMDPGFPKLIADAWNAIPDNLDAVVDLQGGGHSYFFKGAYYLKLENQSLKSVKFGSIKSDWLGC

SMILES | IC50 (Orexin receptor type 2 [1]) | IC50 (CHO-K1) | IC50 [2] | IC50 [3] | IC50 [4] | IC50 (Orexin receptor type 2 [5]) | IC50 [15] | IC50 [16] | further results
CSc1cccc(NC(=O)C2CCCN(S(=O)(=O)c3cccs3)C2)c1 (configuration not stated) | > 50 µM (inactive) | > 66.2 µM (inactive) | > 49.7 µM (inactive) | 0.546 µM (active) | 6.4 µM (active) | 5.3 µM (active) | – | – | –
CCCCCCCCCCOC(=O)Cn1c(COc2ccc(Cl)cc2)[n+](C)c2ccccc21 | – | – | – | – | – | – | – | – | AC50 [6]: 7.08 µM (active); IC50 [7]: 8.57 µM (active); IC50 [8]: 6.53 µM (active); AC50 [9]: 7.94 µM (active); IC50 [10]: > 100 µM (inactive); EC50 [11]: 12.9 µM (active); IC50 [12]: 19.1 µM (active); IC50 (Prothrombin): 44.6 µM (active); IC50 [13]: 6.71 µM (active); IC50 (Bcl-2-related protein A1): 10.1 µM (active); EC50 [14]: > 120 µM (not active)
Cn1c2ccccc2c(=O)c2cc(C#Cc3cccc(N)c3)ccc21 | 0.07 µM (active) | > 66.3 µM (inactive) | > 49.8 µM (inactive) | 1.5 µM (active) | 1.69 µM (active) | > 88.8 µM (inactive) | – | – | –
COc1ccc(Oc2c(Cl)cnn(CC(=O)OC(C)(C)C)c2=O)cc1 | – | – | – | – | – | – | 14 µM (inactive) | ~19.9 µM (inactive) | –
CCOc1ccc(Oc2c(SC)cnn(Cc3cccc4ccccc34)c2=O)cc1 | – | – | – | – | – | – | > 20 µM (inactive) | 19.6 µM (inactive) | –
